Measured values published in PMC7864676 (Journal of pharmacological sciences, 2018).

T1: human organic anion transporter-3 (hOAT3) (Homo sapiens, UniProt Q8TCC7)
T1 sequence (Q8TCC7 1-542): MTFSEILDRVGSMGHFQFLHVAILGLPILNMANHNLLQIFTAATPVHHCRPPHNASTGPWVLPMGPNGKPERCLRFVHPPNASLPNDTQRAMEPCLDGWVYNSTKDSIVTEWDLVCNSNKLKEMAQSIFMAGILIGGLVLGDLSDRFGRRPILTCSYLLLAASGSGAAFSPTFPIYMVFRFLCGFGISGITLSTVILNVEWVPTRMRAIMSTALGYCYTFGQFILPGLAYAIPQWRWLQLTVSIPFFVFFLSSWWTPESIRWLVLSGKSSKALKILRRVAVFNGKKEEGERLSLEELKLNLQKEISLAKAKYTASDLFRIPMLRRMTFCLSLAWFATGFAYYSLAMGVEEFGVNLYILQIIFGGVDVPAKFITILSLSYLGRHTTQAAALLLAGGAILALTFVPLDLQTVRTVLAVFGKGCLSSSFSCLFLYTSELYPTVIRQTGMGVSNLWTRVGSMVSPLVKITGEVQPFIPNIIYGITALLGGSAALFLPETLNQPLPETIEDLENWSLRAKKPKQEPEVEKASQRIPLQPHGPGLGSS

B1: human organic anion transporter-3 (hOAT3) (Homo sapiens) (protein)
chain: T1 sequence (Q8TCC7 1-542)

Experiments:
[1] = target: T1, human organic anion transporter-3 (hOAT3); assay: cis-inhibition of [3H]-estrone sulfate uptake in hOAT3-expressing HEK293 cells; format: cell-based
[2] = substrate: C[C@]12CC[C@@H]3c4ccc(OS(=O)(=O)O)cc4CC[C@H]3[C@@H]1CCC2=O; assay: cells, lysate or membranes

Molecule | Ki [1] [µM] | Km [2] [µM]
C[C@@H]1C[C@H]2[C@@H]3CCC4=CC(=O)C=C[C@]4(C)[C@@]3(F)[C@@H](O)C[C@]2(C)[C@@]1(O)C(=O)CO [dexamethasone] | 47.1 | –
B1 | – | 5.07 ± 0.49
